Data published in patent publication US20050197350A1, “Novel quinoline, tetrahydroquinazoline, and pyrimidine derivatives and methods of treatment related to the use thereof” (TAISHO PHARMACEUTICAL CO., LTD., priority 2003, published 2005).

These compounds were tested on MCH receptors (assay: MCH receptor activity class (method not given)). Conditions: MCH receptor activity class 1-3 (percent of control at 10^-7 M or IC50).
`Cc1cc([N+](=O)[O-])ccc1NC(=S)N[C@H]1CC[C@@H](Nc2cc(N(C)C)c3ccccc3n2)CC1` [compound 2291] was tested, and the class was 3 (Class 3 The value of percent of control at 10^−7 M was more than 60% or the value of IC50 was more than 200 nM.).
For `CN(C)c1cc(N[C@H]2CC[C@@H](NC(=S)NCc3cccc(Cl)c3)CC2)nc2ccccc12` [compound 2292], the class was 3 (Class 3 The value of percent of control at 10^−7 M was more than 60% or the value of IC50 was more than 200 nM.).
With `CCOC(=O)c1cccc(NC(=S)N[C@H]2CC[C@@H](Nc3cc(N(C)C)c4ccccc4n3)CC2)c1` [compound 2293] the class was 3 (Class 3 The value of percent of control at 10^−7 M was more than 60% or the value of IC50 was more than 200 nM.).
`CN(C)c1cc(N[C@H]2CC[C@@H](NC(=S)Nc3ccc(Cl)cc3C(F)(F)F)CC2)nc2ccccc12` [compound 2294] was tested, and the class was 3 (Class 3 The value of percent of control at 10^−7 M was more than 60% or the value of IC50 was more than 200 nM.).
For `Cc1cc(F)ccc1NC(=S)N[C@H]1CC[C@@H](Nc2cc(N(C)C)c3ccccc3n2)CC1` [compound 2295], the class was 3 (Class 3 The value of percent of control at 10^−7 M was more than 60% or the value of IC50 was more than 200 nM.).
`COc1ccc(NC(=S)N[C@H]2CC[C@@H](Nc3cc(N(C)C)c4ccccc4n3)CC2)c(C)c1` [compound 2296] was tested, and the class was 3 (Class 3 The value of percent of control at 10^−7 M was more than 60% or the value of IC50 was more than 200 nM.).
`COc1cc(OC)c(NC(=S)N[C@H]2CC[C@@H](Nc3cc(N(C)C)c4ccccc4n3)CC2)cc1Cl` [compound 2297, N-(5-chloro-2,4-dimethoxyphenyl)-N′-(cis-4-{[4-(dimethylamino)quinolin-2-yl]amino}cyclohexyl)thiourea] was tested, and the class was 1 (Class 1: The value of percent of control at 10^−7 M was less than 40% or the value of IC50 was less than 50 nM.).
`C[C@@H](NC(=S)N[C@H]1CC[C@@H](Nc2cc(N(C)C)c3ccccc3n2)CC1)c1ccccc1` [compound 2298] was tested, and the class was 3 (Class 3 The value of percent of control at 10^−7 M was more than 60% or the value of IC50 was more than 200 nM.).
In the case of `Cc1cccc(NC(=S)N[C@H]2CC[C@@H](Nc3cc(N(C)C)c4ccccc4n3)CC2)c1C` [compound 2299], the class is reported as 3 (Class 3 The value of percent of control at 10^−7 M was more than 60% or the value of IC50 was more than 200 nM.).
In the case of `CN(C)c1cc(N[C@H]2CC[C@@H](NC(=S)Nc3c(F)cc(Br)cc3Br)CC2)nc2ccccc12` [compound 2300, N-(2,4-dibromo-6-fluorophenyl)-N′-(cis-4-{[4-(dimethylamino)quinolin-2-yl]amino}cyclohexyl)thiourea], the class is reported as 2 (Class 2: The value of percent of control at 10^−7 M was from 40% to 60% or the value of IC′50 was from 50 nM to 200 nM.).
With `Cc1cc(Cl)cc(Cl)c1NC(=S)N[C@H]1CC[C@@H](Nc2cc(N(C)C)c3ccccc3n2)CC1` [compound 2301, N-(2,4-dichloro-6-methylphenyl)-N′-(cis-4-{[4-(dimethylamino)quinolin-2-yl]amino}cyclohexyl)thiourea] the class was 1 (Class 1: The value of percent of control at 10^−7 M was less than 40% or the value of IC50 was less than 50 nM.).
For `CCOc1ccccc1NC(=S)N[C@H]1CC[C@@H](Nc2cc(N(C)C)c3ccccc3n2)CC1` [compound 2302], the class was 3 (Class 3 The value of percent of control at 10^−7 M was more than 60% or the value of IC50 was more than 200 nM.).
For `Cc1cccc(C(C)C)c1NC(=S)N[C@H]1CC[C@@H](Nc2cc(N(C)C)c3ccccc3n2)CC1` [compound 2303], the class was 3 (Class 3 The value of percent of control at 10^−7 M was more than 60% or the value of IC50 was more than 200 nM.).
With `CN(C)c1cc(N[C@H]2CC[C@@H](NC(=S)Nc3ccc4c(c3)OCCO4)CC2)nc2ccccc12` [compound 2304] the class was 3 (Class 3 The value of percent of control at 10^−7 M was more than 60% or the value of IC50 was more than 200 nM.).
In the case of `CN(C)c1cc(N[C@H]2CC[C@@H](NC(=S)Nc3ccc4c(c3)OCO4)CC2)nc2ccccc12` [compound 2305], the class is reported as 3 (Class 3 The value of percent of control at 10^−7 M was more than 60% or the value of IC50 was more than 200 nM.).
`Cc1c(Cl)cccc1NC(=S)N[C@H]1CC[C@@H](Nc2cc(N(C)C)c3ccccc3n2)CC1` [compound 2306] was tested, and the class was 3 (Class 3 The value of percent of control at 10^−7 M was more than 60% or the value of IC50 was more than 200 nM.).
`CN(C)c1cc(N[C@H]2CC[C@@H](NC(=S)Nc3ccc(Br)cc3OC(F)(F)F)CC2)nc2ccccc12` [compound 2307] was tested, and the class was 3 (Class 3 The value of percent of control at 10^−7 M was more than 60% or the value of IC50 was more than 200 nM.).
For `COc1cc(NC(=S)N[C@H]2CC[C@@H](Nc3cc(N(C)C)c4ccccc4n3)CC2)c(OC)cc1Cl` [compound 2308], the class was 3 (Class 3 The value of percent of control at 10^−7 M was more than 60% or the value of IC50 was more than 200 nM.).
With `Cc1onc(-c2ccccc2)c1NC(=S)N[C@H]1CC[C@@H](Nc2cc(N(C)C)c3ccccc3n2)CC1` [compound 2309] the class was 3 (Class 3 The value of percent of control at 10^−7 M was more than 60% or the value of IC50 was more than 200 nM.).
`COC(=O)c1scc(C)c1NC(=S)N[C@H]1CC[C@@H](Nc2cc(N(C)C)c3ccccc3n2)CC1` [compound 2311] was tested, and the class was 2 (Class 2: The value of percent of control at 10^−7 M was from 40% to 60% or the value of IC′50 was from 50 nM to 200 nM.).
`COC(=O)c1sccc1NC(=S)N[C@H]1CC[C@@H](Nc2cc(N(C)C)c3ccccc3n2)CC1` [compound 2312] was tested, and the class was 3 (Class 3 The value of percent of control at 10^−7 M was more than 60% or the value of IC50 was more than 200 nM.).
`CCCCc1ccc(NC(=S)N[C@H]2CC[C@@H](Nc3cc(N(C)C)c4ccccc4n3)CC2)c(C)c1` [compound 2313] was tested, and the class was 3 (Class 3 The value of percent of control at 10^−7 M was more than 60% or the value of IC50 was more than 200 nM.).
In the case of `COc1cc([N+](=O)[O-])ccc1NC(=S)N[C@H]1CC[C@@H](Nc2nccc(N(C)C)n2)CC1` [compound 2314], the class is reported as 3 (Class 3 The value of percent of control at 10^−7 M was more than 60% or the value of IC50 was more than 200 nM.).
With `COc1ccc(C)cc1NC(=S)N[C@H]1CC[C@@H](Nc2nccc(N(C)C)n2)CC1` [compound 2315] the class was 3 (Class 3 The value of percent of control at 10^−7 M was more than 60% or the value of IC50 was more than 200 nM.).
In the case of `CN(C)c1ccnc(N[C@H]2CC[C@@H](NC(=S)Nc3ccc(Br)cc3Cl)CC2)n1` [compound 2316], the class is reported as 3 (Class 3 The value of percent of control at 10^−7 M was more than 60% or the value of IC50 was more than 200 nM.).
`CN(C)c1ccnc(N[C@H]2CC[C@@H](NC(=S)Nc3ccc(I)cc3)CC2)n1` [compound 2317] was tested, and the class was 3 (Class 3 The value of percent of control at 10^−7 M was more than 60% or the value of IC50 was more than 200 nM.).
For `CN(C)c1ccnc(N[C@H]2CC[C@@H](NC(=S)Nc3c(Cl)cc(Cl)cc3Cl)CC2)n1` [compound 2319], the class was 3 (Class 3 The value of percent of control at 10^−7 M was more than 60% or the value of IC50 was more than 200 nM.).
`Cc1cc(C)c(NC(=S)N[C@H]2CC[C@@H](Nc3nccc(N(C)C)n3)CC2)c(C)c1` [compound 2320, N-(cis-4-{[4-(dimethylamino)pyrimidin-2-yl]amino}cyclohexyl)-N′-mesitylthiourea] was tested, and the class was 1 (Class 1: The value of percent of control at 10^−7 M was less than 40% or the value of IC50 was less than 50 nM.).
In the case of `Cc1ccc(NC(=S)N[C@H]2CC[C@@H](Nc3nccc(N(C)C)n3)CC2)c(C)c1` [compound 2321], the class is reported as 3 (Class 3 The value of percent of control at 10^−7 M was more than 60% or the value of IC50 was more than 200 nM.).
With `CCc1cccc(CC)c1NC(=S)N[C@H]1CC[C@@H](Nc2nccc(N(C)C)n2)CC1` [compound 2322] the class was 3 (Class 3 The value of percent of control at 10^−7 M was more than 60% or the value of IC50 was more than 200 nM.).
For `Cc1ccc(NC(=S)N[C@H]2CC[C@@H](Nc3nccc(N(C)C)n3)CC2)c(Br)c1` [compound 2323], the class was 3 (Class 3 The value of percent of control at 10^−7 M was more than 60% or the value of IC50 was more than 200 nM.).
With `CN(C)c1ccnc(N[C@H]2CC[C@@H](NC(=S)NCc3ccccc3Cl)CC2)n1` [compound 2324] the class was 3 (Class 3 The value of percent of control at 10^−7 M was more than 60% or the value of IC50 was more than 200 nM.).
In the case of `CCc1cccc(C)c1NC(=S)N[C@H]1CC[C@@H](Nc2nccc(N(C)C)n2)CC1` [compound 2325], the class is reported as 3 (Class 3 The value of percent of control at 10^−7 M was more than 60% or the value of IC50 was more than 200 nM.).
With `CC(C)c1ccccc1NC(=S)N[C@H]1CC[C@@H](Nc2nccc(N(C)C)n2)CC1` [compound 2326] the class was 3 (Class 3 The value of percent of control at 10^−7 M was more than 60% or the value of IC50 was more than 200 nM.).
With `COC(=O)c1cccc(NC(=S)N[C@H]2CC[C@@H](Nc3nccc(N(C)C)n3)CC2)c1` [compound 2327] the class was 3 (Class 3 The value of percent of control at 10^−7 M was more than 60% or the value of IC50 was more than 200 nM.).
In the case of `Cc1cc(Br)cc(C)c1NC(=S)N[C@H]1CC[C@@H](Nc2nccc(N(C)C)n2)CC1` [compound 2328, N-(4-bromo-2,6-dimethylphenyl)-N′-(cis-4-{[4-(dimethylamino)pyrimidin-2-yl]amino}cyclohexyl)thiourea], the class is reported as 1 (Class 1: The value of percent of control at 10^−7 M was less than 40% or the value of IC50 was less than 50 nM.).
For `Cc1cc(Br)ccc1NC(=S)N[C@H]1CC[C@@H](Nc2nccc(N(C)C)n2)CC1` [compound 2329], the class was 3 (Class 3 The value of percent of control at 10^−7 M was more than 60% or the value of IC50 was more than 200 nM.).
With `CN(C)c1ccnc(N[C@H]2CC[C@@H](NC(=S)Nc3ccc(Br)cc3C(F)(F)F)CC2)n1` [compound 2330] the class was 3 (Class 3 The value of percent of control at 10^−7 M was more than 60% or the value of IC50 was more than 200 nM.).
For `Cc1cc(Cl)ccc1NC(=S)N[C@H]1CC[C@@H](Nc2nccc(N(C)C)n2)CC1` [compound 2331], the class was 3 (Class 3 The value of percent of control at 10^−7 M was more than 60% or the value of IC50 was more than 200 nM.).
For `CN(C)c1ccnc(N[C@H]2CC[C@@H](NC(=S)NCc3cccc4ccccc34)CC2)n1` [compound 2332], the class was 3 (Class 3 The value of percent of control at 10^−7 M was more than 60% or the value of IC50 was more than 200 nM.).
